Results: patent publication US11795454B2, “Targeted delivery system” (Cedars-Sinai Medical Center, priority 2009, dated 2023)
Where two headings read alike, the source gives them in different places.

B1: HerDox: self-assembled nanoparticle of oligonucleotide duplex, doxorubicin and HerPBK10 (conjugate)
chain: LPPRLKEMKSQESAAGSKLVLRCETSSEYSSLRFKWFKNGNELNRKNKPQNIKIQKKPGKSELRINKASLADSGEYMCKVISKLGNDSASANITIVESNEIITGMPASTEGAYVSSESPIRISVSTEGANTSSSTSTSTTGTSHLVKCAEKEKTFCVNGGECFMVKDLSNPSRYLCKCQPGFTGARCTENVPMKVQNQEKAEELYMRRAAMYEEGPPPSYESVVSAAPVAAALGSPFDAPLDPPFVPPRYLRPTGGRNSIRYSELAPLFDTTRVYLVDNKSTDVASLNYQNDHSNFLTTVIQNNDYSPGEASTQTINLDDRSHWGGDLKTILHTNMPNVNEFMFTNKFKARVMVSRLPTKDNQVELKYEWVEFTLPEGNYSETMTIDLMNNAIVEHYLKVGRQNGVLESDIGVKFDTRNFRLGFDPVTGLVMPGVYTNEAFHPDIILLPGCGVDFTHSRLSNLLGIRKRQPFQEGFRITYDDLEGGNIPALLDVDAYQASLKDDTEQGGGGAGGSNSSGSGAEENSNAAAAAMQPVEDMNDHAIRGDTFATRAEEKRAEAEAAAEAAAPAAQPEVEKPQKKPVIKPLTEDSKKRSYNLISNDSTFTQYRSWYLAYNYGDPQTGIRSWTLLCTPDVTCGSEQVYWSLPDMMQDPVTFRSTRQISNFPVVGAELLPVHSKSFYNDQAVYSQLIRQFTSLTHVFNRFPENQILARPPAPTITTVSENVPALTDHGTLPLRNSIGGVQRVTITDARRRTCPYVYKALGIVSPRVLSSRTFKKKKKKKKKK

Columns and labels:
[1] = Description: FIG. 26A. Stability in blood. […] N=3. […] Control conditions preventing digest include using heat-inactivated (HI) serum and 0° C. incubation. FIG. 26C. Assessing Dox retention in serum.
To study stability in blood, HerDox or Dox (60 uM each) were incubated in equivalent volumes of whole blood (containing 0.5 mM EDTA to prevent coagulation and freshly collected from the aorta of an anesthetized mouse following IACUC-approved procedures) for up to 60 min at 37° C., followed by centrifugation through 10K mwco filters. Retentate and filtrate fluorescences were extrapolated against a Dox calibration curve performed in blood plasma to correct for plasma-induced fluorescence shift. […] Control conditions preventing digest include using heat-inactivated serum and 0° C. incubation. […] Filtrates were collected and membranes washed 3× with HBS before collection and fluorescence measurement of retentates. All fluorescence spectra were obtained using a 515 nm cutoff filter.

MDA-MB-435 tumors = assay: Therapeutic efficacy in vivo, daily i.v. injections for 7 days; design: species or system mouse; conditions: for tumor growth: 0.004 mg/kg Dox equivalent, daily i.v. for seven days
MDA-MB-435 cells = assay: Uptake and intracellular trafficking, confocal fluorescence microscopy; format: cell-based, human; conditions: 0.5 uM final Dox concentration
Description: FIG. 28A. […] Dox fluorescence (magenta) is overlaid on DIC images. FIG. 28D. […] Relaxed (nicked) and supercoiled (sc) plasmid forms are indicated.
General procedures: MDA-MB-435 cells were plated ˜36 h before receiving HerDox or Dox (0.5 uM final Dox concentration) in fresh media containing the indicated constructs. For live cell assays, the cells (plated in chambers) were imaged at the indicated time points after treatment, under brightfield or DIC (where indicated) and fluorescence modes to identify the cell structure and Dox fluorescence, respectively. For fixed cell assays, the cells were plated on cover slips in 24-well plates (1×10^5 cells/well) ˜36 h before receiving HerDox or Dox in fresh complete media at 37° C., and separate samples fixed and processed for immunofluorescence against HerPBK10 following established procedures. A Leica SP2 laser-scanning confocal fluorescence microscope was used for fixed and live cell imaging.
The ability to visualize nuclear Dox fluorescence after cell exposure to free Dox has been used frequently to detect Dox uptake in cells, and has been attributed to interaction with histones. To determine whether these localization differences indicate that Dox remains attached to HerPBK10 during uptake, the inventors used a counterstain for HerPBK10.

U251 human glioma cells = assay: Targeted glioma cell death in vitro; format: cell-based; conditions: single dose
Description: (§1) All treatments, N=3. FIG. 27A. Comparing cytotoxicity to HER2+ (MDAMB-435) and HER2− (MDA-MB-231) cells in separate cultures. Left, Relative survival (as % of untreated cells) on day 3 of treatment. Right, Micrograph of live cells after treatment. Control, mock (HBS) treatment. FIG. 27B, Receptor specificity of cytotoxicity. […] FIG. 27C, Toxicity to cells displaying differential HER2. Cytotoxicities from HerDox titrations were assessed on each cell line by metabolic assay and confirmed by crystal violet stain on day 3 of treatment. CD50 values (shown in log scale) were determined by non-linear regression analyses of HerDox killing curves using GraphPad Prism. The relative HER2 level of each cell line is shown next to each CD50 value. FIG. 27D, Targeting in a mixed MDA-MB-435(HER2+,GFP−)/MDA-MB-231(HER2−,GFP+) cell culture. Survival was determined by calculating the relative doubling time (DT) of experimental (exp) cells normalized by mock-treated (con) cells based on crystal violet stains (total cells) and GFP fluorescence (MDAMB-231 cells), and applying DTMDA-MB-435=DTTotal-DTMDA-MB-231 as previously described. Relative survival is shown for Day 2 of treatment. […] U251 cells were treated once with the indicated HerDox (and competitive inhibitor where indicated) or Dox doses and measured for cell survival at the indicated time points after treatment. * P<0.05 compared to Mock. […]

[2] = system: MDA-MB-435(HER2+,GFP−)/MDA-MB-231(HER2−,GFP+) cell culture; assay: Targeting in a mixed HER2+/HER2− cell culture; format: cell-based, human; conditions: 0.5 uM, day 2
Description: as §1

MDA-MB-435 (HER2+) cells = assay: HerDox targeted toxicity in vitro, separate cultures; format: cell-based, human; conditions: MDA-MB-435, day 3
Description: All treatments, N=3. FIG. 27A. Comparing cytotoxicity to HER2+ (MDAMB-435) and HER2− (MDA-MB-231) cells in separate cultures. Left, Relative survival (as % of untreated cells) on day 3 of treatment. Right, Micrograph of live cells after treatment. Control, mock (HBS) treatment. FIG. 27B, Receptor specificity of cytotoxicity. […] FIG. 27C, Toxicity to cells displaying differential HER2. Cytotoxicities from HerDox titrations were assessed on each cell line by metabolic assay and confirmed by crystal violet stain on day 3 of treatment. CD50 values (shown in log scale) were determined by non-linear regression analyses of HerDox killing curves using GraphPad Prism. The relative HER2 level of each cell line is shown next to each CD50 value. FIG. 27D, Targeting in a mixed MDA-MB-435(HER2+,GFP−)/MDA-MB-231(HER2−,GFP+) cell culture. Survival was determined by calculating the relative doubling time (DT) of experimental (exp) cells normalized by mock-treated (con) cells based on crystal violet stains (total cells) and GFP fluorescence (MDAMB-231 cells), and applying DTMDA-MB-435=DTTotal-DTMDA-MB-231 as previously described. Relative survival is shown for Day 2 of treatment. FIG. 27E, Targeted glioma cell death in vitro. U251 cells were treated once with the indicated HerDox (and competitive inhibitor where indicated) or Dox doses and measured for cell survival at the indicated time points after treatment. * P<0.05 compared to Mock.
For all in vitro treatments, cell lines were grown for ˜36 h after plating (104/well in 96-well dishes) to allow receptor re-expression, followed by media replacement with new media containing indicated constructs in reduced volume at the indicated final molarities for 4 h with rocking, followed by supplementation with additional media and continued growth for the indicated time periods. Except for the experiments performed on the U251 glioma cells (which received a one-time treatment), cells received these treatments daily while separate sets of wells were assessed for cell death by either metabolic assay (CellTiter Promega Corporation, Madison, WI, USA) or crystal violet stain each day. Where indicated, cells received competitive inhibitor (eHRG) at 10× molar excess for 30 min-1 h at 4° C. before treatment. Treatment of mixed (HER2+/HER2−) cell cultures with HerDox or Dox (0.5 uM), and cell surface receptor subunit level determination were performed as previously described.

Molecule	Dox loss from retentates [1]	protection of the DNA duplex from serum degradation [1]	remaining free Dox (weak or non-specific binding to serum proteins) ([1]; mouse, serum)	tumor growth (MDA-MB-435 tumors)	tumor ablation compared with HerDox (MDA-MB-435 tumors; 10× higher Dox dose (0.04 mg/kg))	subcellular localization of Dox fluorescence (MDA-MB-435 cells)	cell death (U251 human glioma cells)	cell growth in mixed cell culture [2]	toxicity / survival (MDA-MB-435 (HER2+) cells)	Dox loss from retentates ([1]; 100% mouse serum, 30 min at 37° C., 10K mwco)	dose for tumor ablation lower compared to untargeted doxorubicin (MDA-MB-435 tumors; intravenous delivery)
COc1cccc2c1C(=O)c1c(O)c3c(c(O)c1C2=O)C[C@@](O)(C(=O)CO)C[C@@H]3O[C@H]1C[C@H](N)[C@H](O)[C@H](C)O1.Cl [Dox, Doxorubicin-HCl, reference compound]	~70%	partially protected the DNA from serum degradation	~30%	low efficacy	slightly less effective	detectable at the nuclear periphery immediately after administration	75-80%	reduced efficacy	no preference		
B1				ablation of tumor growth		nuclear accumulation by 60 min	96-99%	substantially reduced HER2+ but not HER2− cell growth	significant toxicity	no Dox loss was detected	> 10 ×
